# US9108951B2, “Substituted 5,6,7,8-tetrahydro-1,6-naphthyridines as factor XIa inhibitors” (BRISTOL-MYERS SQUIBB COMPANY, priority 2011, dated 2015)
# pKi: −log10 of the molar value. Structures can show the parent of a compound that is named as a salt.
# Target: purified human Factor XIa (Homo sapiens (Human), UniProt P03951)
# Assay: Factor XIa assay (chromogenic substrate hydrolysis, Ki)
# Format: biochemical
# Settings: synthetic substrate S-2366, 50 mM HEPES pH 7.4
# Experimental: The effectiveness of compounds of the present invention as inhibitors of the coagulation factors XIa, VIIa, IXa, Xa, XIIa, plasma kallikrein or thrombin, can be determined using a relevant purified serine protease, respectively, and an appropriate synthetic substrate. The rate of hydrolysis of the chromogenic or fluorogenic substrate by the relevant serine protease was measured both in the absence and presence of compounds of the present invention. […] A decrease in the rate of absorbance or fluorescence change in the presence of inhibitor is indicative of enzyme inhibition. Such methods are known to one skilled in the art. The results of this assay are expressed as the inhibitory constant, Ki.
# Values of Ki were determined by allowing the protease to react with the substrate in the presence of the inhibitor. Reactions were allowed to go for periods of 20-180 minutes (depending on the protease) and the velocities (rate of absorbance or fluorescence change versus time) were measured. The following relationships were used to calculate Ki values: (vo−vs)/vs=I/(Ki(1+S/Km)) for a competitive inhibitor with one binding site; or vs/vo=A+((B−A)/1+((IC50/(I)n))); and Ki=IC50/(1+S/Km) for a competitive inhibitor where: […]
# purified human Factor XIa, sequence (P03951 388-625): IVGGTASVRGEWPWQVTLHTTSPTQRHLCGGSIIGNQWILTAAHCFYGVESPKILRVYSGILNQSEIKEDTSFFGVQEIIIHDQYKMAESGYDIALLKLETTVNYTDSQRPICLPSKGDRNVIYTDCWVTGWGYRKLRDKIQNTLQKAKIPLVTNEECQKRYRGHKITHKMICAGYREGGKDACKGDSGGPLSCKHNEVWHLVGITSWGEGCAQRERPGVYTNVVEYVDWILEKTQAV
# purified human Factor XIa, sequence (P03951 19-387 partner): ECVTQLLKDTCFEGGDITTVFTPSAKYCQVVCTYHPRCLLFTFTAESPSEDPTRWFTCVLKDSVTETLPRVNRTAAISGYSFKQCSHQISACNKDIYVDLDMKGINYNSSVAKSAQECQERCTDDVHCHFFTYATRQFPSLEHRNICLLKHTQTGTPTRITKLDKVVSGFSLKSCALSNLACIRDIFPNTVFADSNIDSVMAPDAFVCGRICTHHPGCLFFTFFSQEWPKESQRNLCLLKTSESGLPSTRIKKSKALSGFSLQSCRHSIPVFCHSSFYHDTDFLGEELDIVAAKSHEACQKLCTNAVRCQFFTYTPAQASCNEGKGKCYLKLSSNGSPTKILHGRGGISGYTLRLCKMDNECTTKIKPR
row,Compound,pKi
1,"NC(=O)c1ccc(-c2nccc3c2CCN(C(=O)/C=C/c2c(-n4cnnn4)ccc(Cl)c2F)C3C(=O)Nc2ccc3cn[nH]c3c2)cc1 (centres unmarked) [Example 23, (E)-5-(4-Carbamoylphenyl)-2-(3-(3-chloro-2-fluoro-6-(1H-tetrazol-1-yl)phenyl)acryloyl)-N-(1H-indazol-6-yl)-1,2,3,4-tetrahydro-2,6-naphthyridine-1-carboxamide, TFA salt]",> 8.30
2,"O=C(O)c1ccc(NC(=O)C2c3ccnc(N4CCOCC4)c3CCN2C(=O)/C=C/c2c(-n3cnnn3)ccc(Cl)c2F)cc1 (centres unmarked) [Example 28, (E)-4-(2-(3-(3-Chloro-2-fluoro-6-(1H-tetrazol-1-yl)phenyl)acryloyl)-5-morpholino-1,2,3,4-tetrahydro-2,6-naphthyridine-1-carboxamido)benzoic acid, TFA Salt]",> 8.30
3,"O=C(Nc1ccc(C2CCCN2)cc1)[C@@H]1c2ccccc2CCN1C(=O)/C=C/c1cc(Cl)ccc1-n1cnnn1 (stereo partly drawn) [Example 40, (1S)-2-((E)-3-(5-Chloro-2-(1H-tetrazol-1-yl)phenyl)acryloyl)-N-(4-(pyrrolidin-2-yl)phenyl)-1,2,3,4-tetrahydroisoquinoline-1-carboxamide, TFA salt]",5.17
4,"O=C(O)c1ccc(NC(=O)[C@@H]2c3ccccc3CCN2C(=O)C#Cc2cc(Cl)ccc2-n2cnnn2)cc1 [Example 48, (S)-4-(2-(3-(5-Chloro-2-(1H-tetrazol-1-yl)phenyl)propioloyl)-1,2,3,4-tetrahydroisoquinoline-1-carboxamido)benzoic acid]",8.15
5,"CC1(C)CN(C(=O)/C=C/c2cc(Cl)ccc2-n2cnnn2)C(C(=O)Nc2ccc(C(=O)O)cc2)c2c(Br)cccc21 (centres unmarked) [Example 55, (E)-4-(8-bromo-2-(3-(5-chloro-2-(1H-tetrazol-1-yl)phenyl)acryloyl)-4,4-dimethyl-1,2,3,4-tetrahydroisoquinoline-1-carboxamido)benzoic acid]",6.77
6,"CCc1nn(C)c2c1C(C(=O)Nc1ccc(C(=O)O)cc1)N(C(=O)/C=C/c1cc(Cl)ccc1-n1cnnn1)CC2 (centres unmarked) [Example 65, (E)-4-(5-(3-(5-Chloro-2-(1H-tetrazol-1-yl)phenyl)acryloyl)-3-ethyl-1-methyl-4,5,6,7-tetrahydro-1H-pyrazolo[4,3-c]pyridine-4-carboxamido)benzoic acid, TFA salt]",7.63
7,"Cc1[nH]nc2c1C(C(=O)Nc1ccc(C(=O)OC(C)(C)C)cc1)N(C(=O)/C=C/c1c(-n3cnnn3)ccc(Cl)c1F)CC2 (centres unmarked) [Example 76, (E)-tert-butyl 4-(5-(3-(3-chloro-2-fluoro-6-(1H-tetrazol-1-yl)phenyl)acryloyl)-3-methyl-4,5,6,7-tetrahydro-2H-pyrazolo[4,3-c]pyridine-4-carboxamido)benzoate, TFA salt]",6.25
8,"Cc1[nH]nc2c1C(C(=O)Nc1ccc(C(=O)O)cc1)N(C(=O)/C=C/c1c(-n3cnnn3)ccc(Cl)c1F)CC2 (centres unmarked) [Example 77, (E)-4-(5-(3-(3-chloro-2-fluoro-6-(1H-tetrazol-1-yl)phenyl)acryloyl)-3-methyl-4,5,6,7-tetrahydro-2H-pyrazolo[4,3-c]pyridine-4-carboxamido)benzoic acid, TFA salt]",8.30
